Assay [1] concerns control sera (pooled serum of ten healthy LUMC hospital workers; commercial negative donor pooled serum from the Dutch bloodbank). It counts as binding, human. On the set-up: Binding of Control serum LUMC to linear peptides / Binding of Control serum Blood-bank to linear peptides / Binding of Control serum LUMC to looped peptides / Binding of Control Serum Blood-Bank to Looped peptides / Binding of Control serum LUMC to linear peptides of the protein M of SARS-CoV Urbani / Binding of Control serum Blood-bank to linear peptides of the protein M of SARS-CoV Urbani / Binding of Control serum LUMC to looped peptides of the protein M of SARS-CoV Urbani / Binding of Control Serum Blood-Bank to Looped peptides of the protein M of SARS-CoV Urbani: unit not given here.

In assay [2] the test system is antibodies in sera from SARS patients (sera 1a, 1b, 2, 6, 37, 62, London, SARS-yellow, SARS-green). It counts as binding, human. Set-up: Binding of serum 6 to linear peptides of protein X1 of SARS-CoV Urbani / Binding of serum 37 to linear peptides of protein X1 of SARS-CoV Urbani / Binding of serum 6 to looped/cyclic peptide (PEPSCAN-ELISA) / Binding of serum 37 to looped/cyclic peptide (PEPSCAN-ELISA) / Binding of serum 37 to looped/cyclic peptides of protein X1 of SARS-CoV Urbani / Binding of serum 6 to linear peptides of protein X2 / Binding of serum 37 to linear peptides of protein X2 / Binding of serum 37 to looped/cyclic peptides of protein X2 of SARS-CoV Urbani / Binding of serum 6 to linear peptides of protein M of SARS-CoV Urbani / Binding of serum 37 to linear peptides of protein M of SARS-CoV Urbani / Binding of serum 6 to looped/cyclic peptides of protein M of SARS-CoV Urbani / Binding of serum 37 to looped/cyclic peptides of protein M of SARS-CoV Urbani / Binding of serum 6 to linear peptides of protein X3 of SARS-CoV Urbani / Binding of serum 37 to linear peptides of protein X3 of SARS-CoV Urbani / Binding of serum 37 to looped/cyclic peptides of protein X3 of SARS-CoV Urbani / Binding of serum 6 to linear peptides of protein X4 of SARS-CoV Urbani / Binding of serum 37 to linear peptides of protein X4 of SARS-CoV Urbani / Binding of serum 37 to looped/cyclic peptides of protein X4 of SARS-CoV Urbani / Binding of serum 6 to linear peptides of protein X5 of SARS-CoV Urbani / Binding of serum 37 to linear peptides of protein X5 of SARS-CoV Urbani / Binding of serum 37 to looped/cyclic peptides of protein X5 of SARS-CoV Urbani / Binding of serum 6 to linear peptides of protein N of SARS-CoV Urbani / Binding of serum 37 to linear peptides of protein N of SARS-CoV Urbani / Binding of serum 6 to linear peptide (PEPSCAN-ELISA) / Binding of serum 1a to looped/cyclic peptides of protein N of SARS-CoV Urbani / Binding of serum 1b to looped/cyclic peptides of protein N of SARS-CoV Urbani / Binding of serum 2 to looped/cyclic peptides of protein N of SARS-CoV Urbani / Binding of serum 6 to looped/cyclic peptides of protein N of SARS-CoV Urbani / Binding of serum 37 to looped/cyclic peptides of protein N of SARS-CoV Urbani / Binding of serum 62 to looped/cyclic peptides of protein N of SARS-CoV Urbani / Binding of serum London to looped/cyclic peptides of protein N of SARS-CoV Urbani / Binding of serum SARS-green to looped/cyclic peptides of protein N of SARS-CoV Urbani: unit not given here.

The subject of assay [3] is rabbit serum obtained by immunizing a rabbit with the SARS-CoV strain Frankfurt 1. It counts as binding. Set-up: Binding of a rabbit serum to linear peptides / Binding of a rabbit serum to looped peptides / Rabbit serum linear peptides / Rabbit serum looped peptides / Binding of a rabbit serum to linear peptides of protein N of SARS-CoV Urbani (Rabbit serum linear peptides) / Binding of a rabbit serum to looped/cyclic peptides of protein N of SARS-CoV Urbani (Rabbit serum looped peptides): unit not given here.

Regarding LRARSVSPKLFIRQE, in assay [1], the “Binding of Control Serum Blood-Bank to Looped peptides” value was determined as 0.6, the “Binding of Control serum Blood-bank to linear peptides” value was 0.6, the “Binding of Control serum LUMC to linear peptides” value is 0.6 and the “Binding of Control serum LUMC to looped peptides” value turned out to be 0.7. In assay [2], the “Binding of serum 1a to linear peptides of protein X4 of SARS-CoV Urbani” value amounted to 0.7, the “Binding of serum 1a to looped/cyclic peptides of protein X4 of SARS-CoV Urbani” value is recorded as 0.8, the “Binding of serum 1b to linear peptides of protein X4 of SARS-CoV Urbani” value worked out at 0.6 and the “Binding of serum 1b to looped/cyclic peptides of protein X4 of SARS-CoV Urbani” value was 0.6. In addition, in assay [2], the “Binding of serum 2 to linear peptides of protein X4 of SARS-CoV Urbani” value is reported as 0.5, the “Binding of serum 2 to looped/cyclic peptides of protein X4 of SARS-CoV Urbani” value turned out to be 0.6, the “Binding of serum 6 to linear peptides of protein X4 of SARS-CoV Urbani” value amounted to 0.8 and the “Binding of serum 6 to looped/cyclic peptides of protein X4 of SARS-CoV Urbani” value is recorded as 0.8. Further, in assay [2], the “Binding of serum 37 to linear peptides of protein X4 of SARS-CoV Urbani” value is 0.7, the “Binding of serum 37 to looped/cyclic peptides of protein X4 of SARS-CoV Urbani” value is on record as 0.7, the “Binding of serum 62 to linear peptides of protein X4 of SARS-CoV Urbani” value is listed as 0.8 and the “Binding of serum 62 to looped/cyclic peptides of protein X4 of SARS-CoV Urbani” value is recorded as 0.7. In assay [2], the “Binding of serum London to linear peptides of protein X4 of SARS-CoV Urbani” value is on record as 0.8, the “Binding of serum London to looped/cyclic peptides of protein X4 of SARS-CoV Urbani” value was determined as 0.4, the “Binding of serum SARS-green to linear peptides of protein X4 of SARS-CoV Urbani” value is recorded as 0.6 and the “Binding of serum SARS-green to looped/cyclic peptides of protein X4 of SARS-CoV Urbani” value came to 0.6. In addition, in assay [2], the “Binding of serum SARS-yellow to linear peptides of protein X4 of SARS-CoV Urbani” value is listed as 0.3 and the “Binding of serum SARS-yellow to looped/cyclic peptides of protein X4 of SARS-CoV Urbani” value stood at 0.7. Besides, the “Recognition of the peptide by the rabbit serum” value in assay [3] is listed as “recognized”.
LRGTIVTRPLMESEL: in assay [1], the “Binding of Control Serum Blood-Bank to Looped peptides of the protein M of SARS-CoV Urbani” value stood at 0.7, the “Binding of Control serum Blood-bank to linear peptides of the protein M of SARS-CoV Urbani” value was 0.5, the “Binding of Control serum LUMC to linear peptides of the protein M of SARS-CoV Urbani” value stood at 0.5 and the “Binding of Control serum LUMC to looped peptides of the protein M of SARS-CoV Urbani” value is 0.7. Further, in assay [2], the “Binding of serum 1a to linear peptides of protein M of SARS-CoV Urbani” value is 0.7, the “Binding of serum 1b to linear peptides of protein M of SARS-CoV Urbani” value amounted to 0.5, the “Binding of serum 2 to linear peptides of protein M of SARS-CoV Urbani” value amounted to 0.3 and the “Binding of serum 6 to linear peptides of protein M of SARS-CoV Urbani” value is 0.3. Also, in assay [2], the “Binding of serum 37 to linear peptides of protein M of SARS-CoV Urbani” value is on record as 0.5, the “Binding of serum 62 to linear peptides of protein M of SARS-CoV Urbani” value was 0.4, the “Binding of serum London to linear peptides of protein M of SARS-CoV Urbani” value came out at 0.3 and the “Binding of serum SARS-green to linear peptides of protein M of SARS-CoV Urbani” value was 0.4. For the same sequence, in assay [2], the “Binding of serum SARS-yellow to linear peptides of protein M of SARS-CoV Urbani” value worked out at 1.0; the “Recognition of the peptide by sera of SARS-CoV infected individuals, and form (linear, looped/cyclic) in which it is recognized” value is “recognized in looped/cyclic form”. In assay [3], the “Rabbit serum linear peptides” value was found to be 0.0 and the “Rabbit serum looped peptides” value is listed as 0.5.

The values above are taken from patent publication US20070128217A1 (priority 2003, published 2007).
